{"source": "patent US9169254B2", "about": "“Spiroimidazolone derivative” (Chugai Seiyaku Kabushiki Kaisha, priority 2009, dated 2015)", "data": [{"biological_target": "T1, human PTH1 receptor (Homo sapiens, UniProt Q03431)", "T1 sequence (Q03431 27-593)": "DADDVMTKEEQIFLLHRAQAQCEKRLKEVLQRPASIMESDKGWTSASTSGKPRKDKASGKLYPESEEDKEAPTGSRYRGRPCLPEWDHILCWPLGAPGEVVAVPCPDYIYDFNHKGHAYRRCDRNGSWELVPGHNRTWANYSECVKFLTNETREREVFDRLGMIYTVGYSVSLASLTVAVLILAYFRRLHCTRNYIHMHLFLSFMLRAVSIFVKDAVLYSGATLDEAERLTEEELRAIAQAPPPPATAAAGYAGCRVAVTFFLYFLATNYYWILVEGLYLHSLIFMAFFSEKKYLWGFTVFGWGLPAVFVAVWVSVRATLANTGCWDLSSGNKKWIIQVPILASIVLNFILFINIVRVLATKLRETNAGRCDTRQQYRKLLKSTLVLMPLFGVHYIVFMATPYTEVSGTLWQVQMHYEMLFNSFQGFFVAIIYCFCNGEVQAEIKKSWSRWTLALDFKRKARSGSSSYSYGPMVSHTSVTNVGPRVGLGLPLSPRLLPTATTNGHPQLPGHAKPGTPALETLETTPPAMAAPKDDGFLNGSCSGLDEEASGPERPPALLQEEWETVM", "test": "In vitro cAMP signal activity in HKRK-B7 cells (LLC-PK1 cells overexpressing the human PTH1 receptor)", "assay_type": "cell-based", "details": "HKRK-B7 cells; compound at 1×10^−3 M; cAMP produced as percentage of that produced by hPTH(1-34) at 100 nM", "units": {"cAMP production activity (%)": "%"}, "values": [{"molecule": "Cc1cc(N(C)C(N)=O)cc(C)c1CCS(=O)(=O)N1CCC2(CC1)N=C(c1cccc(CCCCCC(F)(F)F)c1)NC2=O", "note": "[Compound 1345, 1-[3,5-dimethyl-4-(2-{4-oxo-2-[3-(6,6,6-trifluoro-hexyl)-phenyl]-1,3,8-triaza-spiro[4.5]dec-1-ene-8-sulfonyl}-ethyl)-phenyl]-1-methyl-urea]", "cAMP production activity (%)": 107}, {"molecule": "O=C1NC(c2ccc(C(F)(F)F)cc2)=NC12CCN(S(=O)(=O)c1cccc(Cl)c1)CC2", "note": "[Compound 12, 8-(3-chloro-benzenesulfonyl)-2-(4-trifluoromethyl-phenyl)-1,3,8-triaza-spiro[4.5]dec-1-en-4-one]", "cAMP production activity (%)": 12}, {"molecule": "Cc1cc(C(=O)N2CCCC2)cc(C)c1/C=C/S(=O)(=O)N1CCC2(CC1)N=C(c1cccc(C(F)(F)F)c1)NC2=O", "note": "[Compound 388, 8-{(E)-2-[2,6-dimethyl-4-(pyrrolidine-1-carbonyl)-phenyl]-ethenesulfonyl}-2-(3-trifluoromethyl-phenyl)-1,3,8-triaza-spiro[4.5]dec-1-en-4-one]", "cAMP production activity (%)": 84}, {"molecule": "Cc1cc(N2C(=O)CNC2=O)ccc1/C=C/S(=O)(=O)N1CCC2(CC1)N=C(C1CCC(C(C)C)CC1)NC2=O", "note": "(stereo not drawn) [Compound 563, 3-(4-{(E)-2-[2-(4-Isopropyl-cyclohexyl)-4-oxo-1,3,8-triaza-spiro[4.5]dec-1-ene-8-sulfonyl]-vinyl}-3-methyl-phenyl)-imidazolidine-2,4-dione]", "cAMP production activity (%)": 69}, {"molecule": "Cc1cc(N(C)C(N)=O)cc(C)c1CCS(=O)(=O)N1CCC2(CC1)N=C(CCCCCCCCCCCN)NC2=O", "note": "[Compound 1366, 1-(4-{2-[2-(11-Amino-undecyl)-4-oxo-1,3,8-triaza-spiro[4.5]dec-1-ene-8-sulfonyl]-ethyl}-3,5-dimethyl-phenyl)-1-methyl-urea]", "cAMP production activity (%)": 103}, {"molecule": "Cc1cc(N2COCC2=O)ccc1CCS(=O)(=O)N1CCC2(CC1)N=C(C1CCC(C)CC1)NC2=O", "note": "(stereo not drawn) [Compound 866, 2-(4-methyl-cyclohexyl)-8-{2-[2-methyl-4-(4-oxo-oxazolidin-3-yl)-phenyl]-ethanesulfonyl}-1,3,8-triaza-spiro[4.5]dec-1-en-4-one]", "cAMP production activity (%)": 47}, {"molecule": "CC(=O)Nc1ccc(CCS(=O)(=O)N2CCC3(CC2)N=C(C2CCC(C)CC2)NC3=O)c(OC(C)C)c1", "note": "(stereo not drawn) [Compound 812, N-(3-isopropoxy-4-{2-[2-(4-methyl-cyclohexyl)-4-oxo-1,3,8-triaza-spiro[4.5]dec-1-ene-8-sulfonyl]-ethyl}-phenyl)-acetamide]", "cAMP production activity (%)": 105}, {"molecule": "O=C1NC(c2cccc(OC(F)(F)F)c2)=NC12CCN(S(=O)(=O)CCc1ccc3c(ccn3C[C@H](O)CO)c1)CC2", "note": "[Compound 850, 8-{2-[1-((S)-2,3-dihydroxy-propyl)-1H-indol-5-yl]-ethanesulfonyl}-2-(3-trifluoromethoxy-phenyl)-1,3,8-triaza-spiro[4.5]dec-1-en-4-one]", "cAMP production activity (%)": 82}, {"molecule": "Cc1cc(N2C(=O)NC(C)(C)C2=O)ccc1CCS(=O)(=O)N1CCC2(CC1)N=C(C1CCC(C)CC1)NC2=O", "note": "(stereo not drawn) [Compound 863, 5,5-dimethyl-3-(3-methyl-4-{2-[2-(4-methyl-cyclohexyl)-4-oxo-1,3,8-triaza-spiro[4.5]dec-1-ene-8-sulfonyl]-ethyl}-phenyl)-imidazolidine-2,4-dione]", "cAMP production activity (%)": 67}, {"molecule": "Cc1cc(N(C)C(N)=O)cc(C)c1CCS(=O)(=O)N1CCC2(CC1)N=C(c1cccc(OCCCC(F)(F)C(F)(F)F)c1)NC2=O", "note": "[Compound 1135, 1-[3,5-Dimethyl-4-(2-{4-oxo-2-[3-(4,4,5,5,5-pentafluoro-pentyloxy)-phenyl]-1,3,8-triaza-spiro[4.5]dec-1-ene-8-sulfonyl}-ethyl)-phenyl]-1-methyl-urea]", "cAMP production activity (%)": 84}, {"molecule": "COCCN(C(C)=O)c1cc(C)c(/C=C/S(=O)(=O)N2CCC3(CC2)N=C(C2CCC(C)CC2)NC3=O)c(C)c1", "note": "(stereo not drawn) [Compound 514, N-(3,5-dimethyl-4-{(E)-2-[2-(4-methyl-cyclohexyl)-4-oxo-1,3,8-triaza-spiro[4.5]dec-1-ene-8-sulfonyl]-vinyl}-phenyl)-N-(2-methoxy-ethyl)-acetamide]", "cAMP production activity (%)": 75}, {"molecule": "Cc1cc(C(=O)N2CCSC2)ccc1CCS(=O)(=O)N1CCC2(CC1)N=C(c1cccc(OC(F)(F)F)c1)NC2=O", "note": "[Compound 417, 8-{2-[2-methyl-4-(thiazolidine-3-carbonyl)-phenyl]-ethanesulfonyl}-2-(3-trifluoromethoxy-phenyl)-1,3,8-triaza-spiro[4.5]dec-1-en-4-one]", "cAMP production activity (%)": 97}, {"molecule": "CON(C)C(=O)c1cc(C)c(/C=C/S(=O)(=O)N2CCC3(CC2)N=C(C2CCC(C)CC2)NC3=O)c(C)c1", "note": "(stereo not drawn) [Compound 998, N-Methoxy-3,5,N-trimethyl-4-{(E)-2-[2-(4-methyl-cyclohexyl)-4-oxo-1,3,8-triaza-spiro[4.5]dec-1-ene-8-sulfonyl]-vinyl}-benzamide]", "cAMP production activity (%)": 92}, {"molecule": "Cc1cc(N(C)C(N)=O)cc(C)c1CCS(=O)(=O)N1CCC2(CC1)N=C(C1(CCCC(F)(F)F)CC1)NC2=O", "note": "[Compound 1048, 1-[3,5-Dimethyl-4-(2-{4-oxo-2-[1-(4,4,4-trifluoro-butyl)-cyclopropyl]-1,3,8-triaza-spiro[4.5]dec-1-ene-8-sulfonyl}-ethyl)-phenyl]-1-methyl-urea]", "cAMP production activity (%)": 96}, {"molecule": "Cc1cc(N(C)C(N)=O)cc(C)c1CCS(=O)(=O)N1CCC2(CC1)N=C(C1CCC(=C(F)F)CC1)NC2=O", "note": "(stereo not drawn) [Compound 1059, 1-(4-{2-[2-(4-Difluoromethylene-cyclohexyl)-4-oxo-1,3,8-triaza-spiro[4.5]dec-1-ene-8-sulfonyl]-ethyl}-3,5-dimethyl-phenyl)-1-methyl-urea]", "cAMP production activity (%)": 116}, {"molecule": "Cc1cc(C(=O)N2CCC(O)(CF)CC2)cc(C)c1/C=C/S(=O)(=O)N1CCC2(CC1)N=C(c1cccc(C(C)(F)F)c1)NC2=O", "note": "[Compound 1267, 2-[3-(1,1-difluoro-ethyl)-phenyl]-8-{(E)-2-[4-(4-fluoromethyl-4-hydroxy-piperidine-1-carbonyl)-2,6-dimethyl-phenyl]-ethenesulfonyl}-1,3,8-triaza-spiro[4.5]dec-1-en-4-one]", "cAMP production activity (%)": 74}, {"molecule": "Cc1cc(N2C(=O)CNC2=O)cc(C)c1CCS(=O)(=O)N1CCC2(CC1)N=C(C1CCC(C)CC1)NC2=O", "note": "(stereo not drawn) [Compound 883, 3-(3,5-dimethyl-4-{2-[2-(4-methyl-cyclohexyl)-4-oxo-1,3,8-triaza-spiro[4.5]dec-1-ene-8-sulfonyl]-ethyl}-phenyl)-imidazolidine-2,4-dione]", "cAMP production activity (%)": 56}, {"molecule": "Cc1cc(C(=O)N2CCC(C)(O)CC2)cc(C)c1/C=C/S(=O)(=O)N1CCC2(CC1)N=C(c1ccc(OC(F)(F)F)c(OCCCC(F)(F)F)c1)NC2=O", "note": "[Compound 1232, 8-{(E)-2-[4-(4-hydroxy-4-methyl-piperidine-1-carbonyl)-2,6-dimethyl-phenyl]-ethenesulfonyl}-2-[3-(4,4,4-trifluoro-butoxy)-4-trifluoromethoxy-phenyl]-1,3,8-triaza-spiro[4.5]dec-1-en-4-one]", "cAMP production activity (%)": 106}, {"molecule": "O=C1NC(C2CCCCC2)=NC12CCN(S(=O)(=O)CCc1ccc3c(ccn3CCOCCO)c1)CC2", "note": "[Compound 838, 2-cyclohexyl-8-(2-{1-[2-(2-hydroxy-ethoxy)-ethyl]-1H-indol-5-yl}-ethanesulfonyl)-1,3,8-triaza-spiro[4.5]dec-1-en-4-one]", "cAMP production activity (%)": 75}, {"molecule": "O=C1NC(C2CCCCC2)=NC12CCN(S(=O)(=O)c1cccc3ccccc13)CC2", "note": "[Compound 57, 2-cyclohexyl-8-(naphthalene-1-sulfonyl)-1,3,8-triaza-spiro[4.5]dec-1-en-4-one]", "cAMP production activity (%)": 35}, {"molecule": "Cc1cc(CN)ccc1CCS(=O)(=O)N1CCC2(CC1)N=C(C1CCC(CCC(F)(F)F)CC1)NC2=O.O=C(O)C(F)(F)F", "note": "(stereo not drawn) [Compound 1284, 8-[2-(4-aminomethyl-2-methyl-phenyl)-ethanesulfonyl]-2-[4-(3,3,3-trifluoro-propyl)-cyclohexyl]-1,3,8-triaza-spiro[4.5]dec-1-en-4-one]", "cAMP production activity (%)": 2.5}, {"molecule": "Cc1ccc(C2=NC3(CCN(S(=O)(=O)/C=C/c4c(C)cc(C(=O)N5CCC(C)(O)CC5)cc4C)CC3)C(=O)N2)cc1C", "note": "[Compound 1237, 2-(3,4-dimethyl-phenyl)-8-{(E)-2-[4-(4-hydroxy-4-methyl-piperidine-1-carbonyl)-2,6-dimethyl-phenyl]-ethenesulfonyl}-1,3,8-triaza-spiro[4.5]dec-1-en-4-one]", "cAMP production activity (%)": 96}, {"molecule": "Cc1cc(N(C)C(N)=O)cc(C)c1CCS(=O)(=O)N1CCC2(CC1)N=C(C1C3CCCC1CCC3)NC2=O", "note": "(stereo not drawn) [Compound 1053, 1-{4-[2-(2-bicyclo[3.3.1]non-9-yl-4-oxo-1,3,8-triaza-spiro[4.5]dec-1-ene-8-sulfonyl)-ethyl]-3,5-dimethyl-phenyl}-1-methyl-urea]", "cAMP production activity (%)": 70}, {"molecule": "Cc1cc2ccc1CCS(=O)(=O)N1CCC3(CC1)N=C(NC3=O)c1cc(cc(C(F)(F)F)c1)OCCCCCCCCCCN(C)C2=O", "note": "[Compound 1418]", "cAMP production activity (%)": 36}]}]}
